How the values were obtained:
[1] = molecular target: T1, human recombinant adrenergic α2A receptor (Homo sapiens, UniProt P08913); test: Radioligand binding, adrenergic α2A ([3H]MK-912); details: for Percentage inhibition of ligand binding, Adrenergic α2A / inhibition at 0.1 µM: compound at 0.1 μM, [3H]MK-912, repeat assays, each datapoint shown; for inhibition at 0.1 µM: read-out: Percentage inhibition of ligand binding, Adrenergic α2A
T1 construct: expressed in transfected cells; host or cells: insect Sf9 cells
T1 sequence (P08913 1-465): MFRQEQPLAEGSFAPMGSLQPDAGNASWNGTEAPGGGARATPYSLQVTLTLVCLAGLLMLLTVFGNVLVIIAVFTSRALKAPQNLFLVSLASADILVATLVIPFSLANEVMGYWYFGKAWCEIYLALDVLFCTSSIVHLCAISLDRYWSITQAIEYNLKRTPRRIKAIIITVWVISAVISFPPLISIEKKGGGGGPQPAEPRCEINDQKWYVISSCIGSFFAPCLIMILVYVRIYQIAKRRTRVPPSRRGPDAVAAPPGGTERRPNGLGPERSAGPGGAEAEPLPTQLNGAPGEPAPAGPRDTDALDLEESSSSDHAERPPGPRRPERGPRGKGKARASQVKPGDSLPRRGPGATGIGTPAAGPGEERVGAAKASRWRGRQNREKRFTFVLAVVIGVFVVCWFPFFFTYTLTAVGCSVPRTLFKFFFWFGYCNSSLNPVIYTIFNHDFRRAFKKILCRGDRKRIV
Outline: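 Receptor expressed in insect Sf9 cells, assayed in 50 mM Tris-HCl pH 7.4 with 12.5 mM MgCl2 and 2 mM EDTA. Compounds incubated with 1 nM [3H]MK-912 for 60 min at 25 °C; nonspecific binding defined with 10 μM WB-4101. Filter-bound radioactivity counted; values are percent inhibition of specific binding.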

[2] = molecular target: T2, human recombinant adrenergic α2B receptor (Homo sapiens, UniProt P18089); test: Radioligand binding, adrenergic α2B ([3H]Rauwolscine); details: for inhibition at 0.03 µM / Percentage inhibition of ligand binding, Adrenergic α2B: compound at 0.03 μM; for Ki: read-out: Ki α2B; for Percentage inhibition of ligand binding, Adrenergic α2B: 0.03 µM
T2 construct: expressed in transfected cells; host or cells: CHO-K1
T2 sequence (P18089 1-450): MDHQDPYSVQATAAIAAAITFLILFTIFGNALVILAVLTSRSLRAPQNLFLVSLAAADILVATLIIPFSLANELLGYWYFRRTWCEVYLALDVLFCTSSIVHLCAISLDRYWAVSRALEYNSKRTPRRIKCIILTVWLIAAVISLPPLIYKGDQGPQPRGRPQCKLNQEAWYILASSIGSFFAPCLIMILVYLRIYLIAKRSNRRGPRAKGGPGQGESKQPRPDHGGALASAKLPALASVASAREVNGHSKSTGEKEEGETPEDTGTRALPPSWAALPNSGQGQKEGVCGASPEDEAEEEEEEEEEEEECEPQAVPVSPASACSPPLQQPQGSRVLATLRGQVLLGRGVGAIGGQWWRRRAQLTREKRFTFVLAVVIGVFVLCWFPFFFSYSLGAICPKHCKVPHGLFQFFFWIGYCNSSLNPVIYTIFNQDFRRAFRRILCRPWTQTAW
Outline: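 Membranes from CHO-K1 cells expressing human recombinant α2B, in 50 mM Tris-HCl pH 7.4, 12.5 mM MgCl2, 1 mM EDTA, 0.2% BSA, incubated with compound and 2.5 nM [3H]Rauwolscine, 60 min, 25 °C.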

[3] = molecular target: T3, rat adrenergic α1B receptor (Rattus norvegicus, UniProt P15823); test: Radioligand binding, adrenergic α1B ([3H]Prazosin); details: [3H]Prazosin, repeat assays, each datapoint shown; for inhibition at 0.03 µM: compound at 0.03 μM; for inhibition at 0.03 µM / inhibition at 0.1 µM: read-out: Percentage inhibition of ligand binding, Adrenergic α1B; for Percentage inhibition of ligand binding, Adrenergic α1B / inhibition at 0.1 µM: compound at 0.1 μM; for Percentage inhibition of ligand binding, Adrenergic α1B: 0.1 µM
T3 construct: rat adrenergic α1B receptor obtained from Wistar Rat liver; from tissue; host or cells: Wistar rat liver
T3 sequence (P15823 1-515): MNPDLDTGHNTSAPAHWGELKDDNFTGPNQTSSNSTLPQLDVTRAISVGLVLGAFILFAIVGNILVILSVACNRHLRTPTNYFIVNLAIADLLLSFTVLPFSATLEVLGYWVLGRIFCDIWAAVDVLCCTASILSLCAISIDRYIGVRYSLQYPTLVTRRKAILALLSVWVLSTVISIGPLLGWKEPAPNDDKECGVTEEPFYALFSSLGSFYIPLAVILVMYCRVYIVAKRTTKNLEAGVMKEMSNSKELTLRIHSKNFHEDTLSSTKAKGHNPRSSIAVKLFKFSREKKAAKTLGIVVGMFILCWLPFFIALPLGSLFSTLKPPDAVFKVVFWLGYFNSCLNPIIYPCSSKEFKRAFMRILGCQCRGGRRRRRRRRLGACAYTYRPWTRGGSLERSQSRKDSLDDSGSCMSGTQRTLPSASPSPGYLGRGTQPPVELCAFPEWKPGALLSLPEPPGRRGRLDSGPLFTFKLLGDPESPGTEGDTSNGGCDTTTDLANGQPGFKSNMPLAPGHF
Procedure: To evaluate in radioligand binding assays the activity of compounds of the invention, rat adrenergic α1B receptor obtained from Wistar Rat liver (Garcia-S'ainz, J. et al, Biochem. Biophys. Res. Commun. 186:760, 1992; Michel, A. et al, Br. J. Pharmacol. 98:883, 1989) in a modified Tris-HCl buffer (50 mM Tris-HCl buffer, pH 7.4, 0.5 mM EDTA) was used. Compounds of the invention were incubated with 0.25 nM [^3H]Prazosin for 60 min at 25° C. Non-specific binding was estimated in the presence of 10 μM phentolamine. Receptor proteins were filtered and washed, the filters were then counted to determine [^3H]Prazosin specifically bound. […] Compounds of the invention were tested in this biochemical assay and percent inhibition of specific binding was determined. Biochemical assay results are presented as the percent inhibition of specific binding in Table B1.

[4] = [3H]Rauwolscine, repeat assays, each datapoint shown, read-out: Percentage inhibition of ligand binding, Adrenergic α2B
[5] = [3H]Rauwolscine, repeat assays, each datapoint shown

Row | Ki [1] | Percentage inhibition of ligand binding, Adrenergic α2A ([1]; 0.1 µM) | inhibition at 0.1 µM [1] | inhibition at 0.03 µM [2, 4] | inhibition at 0.1 µM ([2]; compound at 0.1 μM, [3H]Rauwolscine, repeat assays, each datapoint shown, read-out: Percentage inhibition of ligand binding, Adrenergic α2B) | Ki [2] | inhibition at 0.03 µM [3] | Percentage inhibition of ligand binding, Adrenergic α1B [3] | inhibition at 0.1 µM [3] | Percentage inhibition of ligand binding, Adrenergic α2B [2, 5] | Percentage inhibition of ligand binding, Adrenergic α2A [1] | SMILES
1 | 2.1 µM | 12% | 8% | 49% | 78% | 0.0117 µM | 24% | 63% | 61% |  |  | Cc1ccc2c(c1)c1c(n2CC(O)c2ccncc2)CN(C)CC1 (single isomer, unassigned) [8b]
2 |  | 4% |  |  |  |  |  | 11% |  | 23% |  | Cc1ccc2c(c1)c1c(n2CC(O)c2cccnc2)CCNC1 (single isomer, unassigned) [9a, 2-(8-methyl-1,2,3,4-tetrahydro-pyrido[4,3-b]indol-5-yl)-1-pyridin-3-yl-ethanol]
3 |  | 10% |  |  |  |  |  | 10% |  | 50% |  | Cc1ccc2c(c1)c1c(n2CC(O)c2cccnc2)CCNC1 (single isomer, unassigned) [9b, 2-(8-methyl-1,2,3,4-tetrahydro-pyrido[4,3-b]indol-5-yl)-1-pyridin-3-yl-ethanol]
4 |  |  | 8% |  |  |  |  |  | 30% | 34% |  | OC(Cn1c2c(c3cc(Cl)ccc31)CNCC2)c1ccncc1 (single isomer, unassigned) [10a, 2-(8-chloro-1,2,3,4-tetrahydro-pyrido[4,3-b]indol-5-yl)-1-pyridin-4-yl-ethanol]
5 |  | 15% |  |  |  |  |  | 28% |  | 91% |  | OC(Cn1c2c(c3cc(Cl)ccc31)CNCC2)c1ccncc1 (single isomer, unassigned) [10b, 2-(8-chloro-1,2,3,4-tetrahydro-pyrido[4,3-b]indol-5-yl)-1-pyridin-4-yl-ethanol]
6 |  | −6% |  |  |  |  |  |  | 16% | 28% |  | CC(C)(O)CCN1CCc2c(c3cc(Cl)ccc3n2CC(O)c2ccncc2)C1 (single isomer, unassigned) [11a, 4-[8-chloro-5-(2-hydroxy-2-pyridin-4-yl-ethyl)-1,3,4,5-tetrahydro-pyrido[4,3-b]indol-2-yl]-2-methyl-butan-2-ol]
7 |  | 13% |  |  |  |  |  | 18% |  | 64% |  | CC(C)(O)CCN1CCc2c(c3cc(Cl)ccc3n2CC(O)c2ccncc2)C1 (single isomer, unassigned) [11b, 4-[8-chloro-5-(2-hydroxy-2-pyridin-4-yl-ethyl)-1,3,4,5-tetrahydro-pyrido[4,3-b]indol-2-yl]-2-methyl-butan-2-ol]
8 |  |  | 3% | 24% |  |  |  | 23% |  |  |  | CC(O)(Cn1c2c(c3cc(Cl)cnc31)CNCC2)c1ccncc1 (single isomer, unassigned) [12a, 1-(3-chloro-5,6,7,8-tetrahydro-1,6,9-triaza-fluoren-9-yl)-2-pyridin-4-yl-propan-2-ol]
9 |  |  |  |  |  |  |  | 8% |  | 21% | 3% | CC(O)(Cn1c2c(c3cc(Cl)cnc31)CNCC2)c1ccncc1 (single isomer, unassigned) [12b, 1-(3-chloro-5,6,7,8-tetrahydro-1,6,9-triaza-fluoren-9-yl)-2-pyridin-4-yl-propan-2-ol]
10 |  | −2% |  |  |  |  |  | 75% |  | 37% |  | Cc1ccc2c(c1)c1c(n2CC(O)c2ccncc2)CCN(C)CC1 (single isomer, unassigned) [13a, 2-(3,9-dimethyl-2,3,4,5-tetrahydroazepino[4,5-b]indol-6(1H)-yl)-1-(pyridin-4-yl)ethanol]
11 | 0.123 µM |  |  | 97% |  | 0.00192 µM | 17% | 44% | 43% | 98% |  | Cc1ccc2c(c1)c1c(n2CC(C)(O)c2cccnc2)CN(C)CC1 (single isomer, unassigned) [14a, 1-(2,6-dimethyl-1,2,3,4-tetrahydro-β-carbolin-9-yl)-2-pyridin-3-yl-propan-2-ol]
12 |  | 6% |  |  |  |  |  | 81% |  | 65% |  | CN1CCc2c(n(CC(O)c3ccncc3)c3ccc(Cl)cc23)CC1 (single isomer, unassigned) [15a, 2-(9-chloro-3-methyl-2,3,4,5-tetrahydroazepino[4,5-b]indol-6(1H)-yl)-1-(pyridin-4-yl)ethanol]
13 | 0.112 µM | 24% | 21% | 103% |  | 0.00064 µM | 73% | 93% | 89% |  |  | CN1CCc2c(n(CC(O)c3ccncc3)c3ccc(Cl)cc23)CC1 (single isomer, unassigned) [15b, 2-(9-chloro-3-methyl-2,3,4,5-tetrahydroazepino[4,5-b]indol-6(1H)-yl)-1-(pyridin-4-yl)ethanol]
14 |  | 9% |  |  |  |  |  | 47% |  | 33% |  | Cc1ccc2c(c1)c1c(n2CC(C)(O)c2ccccn2)CN(C)CC1 (single isomer, unassigned) [16a, 1-(2,6-dimethyl-1,2,3,4-tetrahydro-β-carbolin-9-yl)-2-pyridin-2-yl-propan-2-ol]
15 |  | 2% |  |  |  |  |  | 16% |  | 2% |  | Cc1ccc2c(c1)c1c(n2CC(C)(O)c2ccccn2)CN(C)CC1 (single isomer, unassigned) [16b, 1-(2,6-dimethyl-1,2,3,4-tetrahydro-β-carbolin-9-yl)-2-pyridin-2-yl-propan-2-ol]

— US8791132B2, “Compounds and methods for treatment of hypertension” (Medivation Technologies, Inc., priority 2011, dated 2014)
